According to PMC3412845, “Waking Action of Ursodeoxycholic Acid (UDCA) Involves Histamine and GABAA Receptor Block” (PLoS ONE, 2012):

Columns and labels:
GABAA receptor = assay: Voltage dependence of GABAAR block (Woodhull analysis); assay type: cell-based
Experimental: Voltage dependence of GABAAR block by UDCA was analysed according to the method of Woodhull, which provides a means of calculating the fraction of the transmembrane field sensed by charged blocking ligand at its acceptor site.

[1] = design: method as in PMID 22356133; details: cited from earlier work
HDC+/+ mice = assay: Polygraphic (EEG/EMG) sleep-wake recording in wild type mice; assay type: in vivo, mouse
Experimental: Animal experiments were conducted according to the Animal Protection Law of the Federal Republic of Germany and the local guidelines (Bezirksregierung Duesseldorf) and were in accordance with the European Communities Council directive regarding care and use of animals for experimental procedures (86/609/EEC). The general protocol of sleep-wake recording and experiment in the mouse was approved by the ethic committee of Claude Bernard University of Lyon. All efforts were made to minimize the number of animals and their suffering. At the age of 12 weeks and with a body weight of 30±2 g HDC wild type and knockout mice used for EEG and sleep-wake studies were chronically implanted, under deep gas anesthesia using isoflurane (2%, 200 ml/min) and a TEM anesthesia system (Bordeaux, France), with six cortical electrodes (gold-plated tinned copper wire, Ø = 0.4 mm, Filotex, Draveil, France) and three neck muscle electrodes (fluorocarbon-coated gold-plated stainless steel wire, Ø = 0.03 mm, Cooner Wire Chatworth, CA, U.S.A.) to record the electroencephalogram (EEG) and electromyogram (EMG) and to monitor the sleep-wake cycle. Finally, the electrode assembly was anchored and fixed to the skull with Super-Bond (Sun Medical Co., Shiga, Japan) and dental cement. This implantation allows stable and long-lasting polygraphic recordings.
After surgery, the animals were housed individually in barrels placed in an insulated sound-proof recording room maintained at an ambient temperature of 22±1°C and on a 12 h light/dark cycle (lights-on at 7 a.m.), standard food and water being available ad libitum. After a 7-days recovery period, mice were habituated to the recording cable for 7 days before polygraphic recordings were started. Cortical EEG (contralateral frontoparietal leads) and EMG signals were amplified, digitized with a resolution of 256 and 128 Hz, respectively, and computed on a CED 1401 Plus (Cambridge, UK). Using a Spike2 script and with the assistance of spectral analysis using the fast Fourier transform, polygraphic records were visually scored by 30-sec epochs for wakefulness (W), slow wave sleep (SWS), and paradoxical sleep (PS) according to previously described criteria validated for mice.
Animals were subjected to 12 h sleep-wake recordings following administration of URSOFALK (clinically used UDCA, 32 mg/kg) through the oral route (per os) at 10 a.m. (during the sleepy period) or at 7 p.m. (during the active period). Each animal received twice single dose of UDCA and twice equal volume of vehicle. There was an interval of 7 days between any two administrations. UDCA or vehicle was applied at random. The waking, slow wave sleep or paradoxical sleep amounts were compared between vehicle and UCDA within the same animal, the differences being averaged within the groups. […]

NMDA receptors = assay: NMDA-evoked currents in isolated neurons; assay type: cell-based
Experimental: Recordings from histaminergic neurons in male Wistar rat (22–26 day old) or 30–60 day old mouse (SV129, histidine decarboxylase deficient HDC−/− or their wild type littermates) hypothalamic slices were performed as previously described. Slices were obtained between 9 and 11 a.m. In the beginning of whole-cell voltage clamp recordings TMN neurons were identified with the help of DIC microscopy and electrophysiological criteria as previously described. Inhibitory postsynaptic currents (IPSCs) were evoked by local stimulation through a bipolar stainless-steel stimulating electrode (50 µm; WPI, UK). The stimulation of axonal endings coming to TMN from ventrolateral preoptic area (VLPO) was done as described in [22]. Visual identification of histaminergic neurons recorded in cell-attached configuration (see [16]) was confirmed by the significant reduction of firing rate by the histamine 3 (H3) receptor agonist R-α-methylhistamine (0.2 µM), which was performed at the end of each experiment. Individual neurons were separated by vibrodissociation after brief preincubation with papain from the hypothalamic slices of mice or rats and identified as TMN neurons according to their size and shape. Identification was confirmed post hoc with the single-cell RT-PCR (all data presented in the manuscript were obtained from histidine decarboxylase-expressing neurons), [40]. TMN neurons from HDC−/− mice were identified by the expression of peripherin [16]. Whole-cell voltage-clamp recordings from isolated neurons were done with an EPC-9 amplifier and TIDA for Windows (HEKA, Lambrecht, Germany) at room temperature. Membrane potentials were not corrected for liquid junction potential (5.6 mV, calculated with LJPCalc, Barry, 1994). The intracellular solution was composed of (in mM) 140 KCl, 2 MgCl2, 0.5 CaCl2, 5 EGTA, 2 ATP and 10 HEPES (pH 7.2 adjusted with NaOH). A fast perfusion technique was used for application of ligands and modulators of fast ionotropic receptors, [41]. […] EC50 is the ligand concentration producing a half-maximal response, [ligand] is ligand concentration, and n is the Hill slope. Hill coefficients were obtained from the slope of the log/log plot of the dose-response curves. […] Steady-state amplitudes of the responses were used for the construction of dose-response plots if not mentioned otherwise.
For the testing of UDCA action at NMDA receptors a maximal 0.2 mM concentration of agonist was used. Recordings were done in Mg^2+ -free solution in the presence of 10 µM of glycine. NMDA-currents were abolished by the NMDA receptor antagonist D-AP5 (100 µM).

[2] = design: method as in PMID 12236487, PMID 15349909; details: after several month of UDCA therapy (up to 35 mg/kg); cited from earlier work
[3] = UDCA 32 mg/kg per os at 7 p.m., vs vehicle

## C[C@H](CCC(=O)O)[C@H]1CC[C@H]2[C@@H]3[C@@H](O)C[C@@H]4C[C@H](O)CC[C@]4(C)[C@H]3CC[C@]12C [UDCA, ursodeoxycholic acid]
GABAA receptor
  current amplitude at +50 mV in the presence of UDCA: 69±5 % of control (−50 mV)
GABAA receptor; Woodhull fit, Eq. 3
  fraction of the transmembrane field sensed at the acceptor site (f): 0.29±0.03
GABAA receptor; Woodhull fit, Eq. 3, read-out: KD(0), dissociation constant at 0 mV
  Kd: 64 µM
GABAA receptor; at +50 mV
  stationary GABA current in the presence of UDCA relative to unblocked current: 28±2%
GABAA receptor; at −50 mV
  stationary GABA current in the presence of UDCA relative to unblocked current: 59±2%
[1]
  access to the CNS: reaches the CNS
HDC+/+ mice; 32 mg/kg orally at 10 a.m. (quiet period)
  sleep wake states: did not affect
HDC+/+ mice; UDCA 32 mg/kg per os at 7 p.m. (active period), vs vehicle, n = 11
  waking: significantly increased
HDC+/+ mice; [3]
  amount of paradoxical sleep (PS): decreased
  amount of slow wave sleep (SWS): decreased
NMDA receptors
  concentration above which block of NMDA receptors starts: higher than 100 µM
NMDA receptors; 100 µM
  NMDA-receptor mediated currents: did not affect
NMDA receptors; read-out: IC50 of NMDA receptor block, n = 4, NMDA 0.2 mM, Mg2+-free, 10 µM glycine
  IC50: 540 ± 40 µM
[2]
  share of the total bile acid pool: 58–69%
